Measured values as given in ChEMBL document CHEMBL1743341, “Cytochrome p450 enzymes mechanism based inhibitors: common sub-structures and reactivity” (Curr Drug Metab, 2005).

Tests used:
Format in all cases: ADME
[1] = biological target: T1, Cytochrome P450 2B4 (Oryctolagus cuniculus, UniProt P00178); test: Mechanism based inhibition of rabbit cytochrome P450 CYP2B4 partition ratio
T1 sequence (P00178 whole entry): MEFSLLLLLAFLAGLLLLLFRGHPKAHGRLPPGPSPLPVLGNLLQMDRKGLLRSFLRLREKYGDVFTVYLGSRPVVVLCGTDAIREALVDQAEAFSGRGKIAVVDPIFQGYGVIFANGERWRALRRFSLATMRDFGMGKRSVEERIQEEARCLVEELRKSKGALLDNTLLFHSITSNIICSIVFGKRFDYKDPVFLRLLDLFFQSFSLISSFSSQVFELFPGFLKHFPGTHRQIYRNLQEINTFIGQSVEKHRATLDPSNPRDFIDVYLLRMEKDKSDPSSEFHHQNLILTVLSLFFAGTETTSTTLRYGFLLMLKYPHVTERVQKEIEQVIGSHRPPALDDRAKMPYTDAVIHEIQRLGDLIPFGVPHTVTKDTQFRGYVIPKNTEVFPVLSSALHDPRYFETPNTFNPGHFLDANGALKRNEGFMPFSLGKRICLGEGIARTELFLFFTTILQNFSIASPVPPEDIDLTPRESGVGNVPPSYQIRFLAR

[2] = biological target: T2, CYP2B4 (Oryctolagus cuniculus, UniProt P00178); test: (§1) Mechanism based inhibition of rabbit cytochrome P450 CYP2B4 1-Phenylethanol oxidation was used as probe activity; conditions: rabbit, probe 1-phenylethanol (oxidation)
T2 sequence (P00178 whole entry): T1 sequence (P00178 whole entry)

[3] = biological target: T1, Cytochrome P450 2B4; test: as §1
[4] = biological target: Cytochrome P450 2C5 (Oryctolagus cuniculus, UniProt P00179); test: Mechanism based inhibition of rabbit cytochrome P450 CYP2C5
Chain of Cytochrome P450 2C5 (P00179 whole entry): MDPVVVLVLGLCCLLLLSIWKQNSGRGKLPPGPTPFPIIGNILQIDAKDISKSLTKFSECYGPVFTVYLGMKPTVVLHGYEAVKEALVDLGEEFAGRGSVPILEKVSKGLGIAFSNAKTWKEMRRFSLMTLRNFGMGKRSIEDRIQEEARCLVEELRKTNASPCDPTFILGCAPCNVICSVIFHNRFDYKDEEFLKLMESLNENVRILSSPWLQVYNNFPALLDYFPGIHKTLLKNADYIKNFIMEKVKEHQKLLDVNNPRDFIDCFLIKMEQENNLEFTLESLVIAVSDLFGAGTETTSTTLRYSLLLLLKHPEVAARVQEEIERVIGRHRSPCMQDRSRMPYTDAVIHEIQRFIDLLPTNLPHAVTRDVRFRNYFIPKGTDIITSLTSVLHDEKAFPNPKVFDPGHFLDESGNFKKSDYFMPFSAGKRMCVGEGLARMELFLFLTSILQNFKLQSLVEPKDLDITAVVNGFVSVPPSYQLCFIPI

[5] = biological target: Cholesterol side-chain cleavage enzyme, mitochondrial (Bos taurus, UniProt P00189); test: Mechanism based inhibition of bovine cytochrome P450 CYP11A1; conditions: cattle
Chain of Cholesterol side-chain cleavage enzyme, mitochondrial (P00189 whole entry): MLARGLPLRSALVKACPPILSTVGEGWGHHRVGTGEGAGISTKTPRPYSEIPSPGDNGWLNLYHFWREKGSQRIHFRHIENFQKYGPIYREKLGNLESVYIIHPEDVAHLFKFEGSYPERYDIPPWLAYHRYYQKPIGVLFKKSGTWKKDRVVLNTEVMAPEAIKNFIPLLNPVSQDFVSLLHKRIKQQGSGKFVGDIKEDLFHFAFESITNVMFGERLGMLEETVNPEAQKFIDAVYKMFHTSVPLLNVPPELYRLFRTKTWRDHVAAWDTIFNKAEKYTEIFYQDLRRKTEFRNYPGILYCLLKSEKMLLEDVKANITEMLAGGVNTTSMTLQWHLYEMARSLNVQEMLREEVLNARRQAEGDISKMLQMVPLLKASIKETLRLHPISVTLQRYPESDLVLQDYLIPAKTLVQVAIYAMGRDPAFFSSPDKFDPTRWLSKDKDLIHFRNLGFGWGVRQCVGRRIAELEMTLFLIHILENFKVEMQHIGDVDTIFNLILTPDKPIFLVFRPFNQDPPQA

[6] = biological target: T3, CYP1A2 (Rattus norvegicus, UniProt P04799); test: (§2) Mechanism based inhibition of rat cytochrome P450 CYP1A2 measured by zolmitriptan metabolism; conditions: rat, probe zolmitriptan (metabolism)
T3 sequence (P04799 whole entry): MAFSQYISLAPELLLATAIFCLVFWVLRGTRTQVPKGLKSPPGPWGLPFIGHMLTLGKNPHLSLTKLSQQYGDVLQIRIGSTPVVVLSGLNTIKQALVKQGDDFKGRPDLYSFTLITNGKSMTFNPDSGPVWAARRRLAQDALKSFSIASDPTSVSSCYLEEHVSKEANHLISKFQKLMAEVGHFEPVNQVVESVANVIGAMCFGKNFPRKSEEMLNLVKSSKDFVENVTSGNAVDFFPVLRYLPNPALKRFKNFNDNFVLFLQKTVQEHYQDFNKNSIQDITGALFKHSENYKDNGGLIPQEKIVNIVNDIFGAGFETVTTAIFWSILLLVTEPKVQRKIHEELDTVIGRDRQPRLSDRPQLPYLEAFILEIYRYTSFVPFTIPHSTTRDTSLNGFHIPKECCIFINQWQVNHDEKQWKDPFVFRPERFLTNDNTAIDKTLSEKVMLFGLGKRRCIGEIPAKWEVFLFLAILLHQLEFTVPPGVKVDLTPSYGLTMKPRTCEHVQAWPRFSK

[7] = biological target: T4, Cytochrome P450 1A2 (Rattus norvegicus, UniProt P04799); test: as §2
T4 sequence (P04799 whole entry): T3 sequence (P04799 whole entry)

[8] = biological target: CYP3A4 (Homo sapiens, UniProt P08684); test: (§3) Mechanism based inhibition of human cytochrome P450 CYP3A4 measured by 7BFC O-debenzylation; conditions: human, probe 7BFC (O-debenzylation)
Chain of CYP3A4 (P08684 whole entry): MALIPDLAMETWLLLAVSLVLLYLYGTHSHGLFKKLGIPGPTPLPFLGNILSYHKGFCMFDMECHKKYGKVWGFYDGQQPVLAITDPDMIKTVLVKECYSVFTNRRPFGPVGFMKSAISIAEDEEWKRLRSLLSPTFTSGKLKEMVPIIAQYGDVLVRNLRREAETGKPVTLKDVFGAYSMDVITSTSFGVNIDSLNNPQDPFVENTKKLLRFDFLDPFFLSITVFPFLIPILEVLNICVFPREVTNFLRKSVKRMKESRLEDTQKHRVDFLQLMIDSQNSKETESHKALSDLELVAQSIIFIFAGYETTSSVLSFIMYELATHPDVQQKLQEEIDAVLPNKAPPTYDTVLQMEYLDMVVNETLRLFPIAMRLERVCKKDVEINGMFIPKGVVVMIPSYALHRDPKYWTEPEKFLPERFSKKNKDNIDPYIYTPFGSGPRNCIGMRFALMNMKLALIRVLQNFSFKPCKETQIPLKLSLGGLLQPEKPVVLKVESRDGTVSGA

[9] = biological target: Cytochrome P450 3A4 (Homo sapiens, UniProt P08684); test: as §3
Chain of Cytochrome P450 3A4 (P08684 whole entry): as above

[10] = biological target: T5, CYP2B6 (Homo sapiens, UniProt P20813); test: Mechanism based inhibition of human cytochrome P450 CYP2B6 measured by 7-EFC O-deethylation activity; conditions: probe 7-EFC (O-deethylation)
T5 sequence (P20813 whole entry): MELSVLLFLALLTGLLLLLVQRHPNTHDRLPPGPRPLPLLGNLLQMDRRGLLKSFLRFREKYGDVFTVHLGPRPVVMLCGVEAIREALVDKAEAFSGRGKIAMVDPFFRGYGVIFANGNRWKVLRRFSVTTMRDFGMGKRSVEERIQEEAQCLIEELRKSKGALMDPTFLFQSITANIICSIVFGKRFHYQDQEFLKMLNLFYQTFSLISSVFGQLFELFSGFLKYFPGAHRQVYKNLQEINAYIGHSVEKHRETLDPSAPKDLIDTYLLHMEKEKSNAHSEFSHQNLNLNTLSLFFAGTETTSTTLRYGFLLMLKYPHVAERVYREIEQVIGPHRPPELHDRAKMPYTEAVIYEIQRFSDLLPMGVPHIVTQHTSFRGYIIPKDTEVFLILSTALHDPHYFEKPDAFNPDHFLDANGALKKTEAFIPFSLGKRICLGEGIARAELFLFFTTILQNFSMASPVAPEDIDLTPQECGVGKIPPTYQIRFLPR

[11] = biological target: T6, Cytochrome P450 2C11 (Rattus norvegicus, UniProt P08683); test: Mechanism based inhibition of rat cytochrome P450 CYP2C11 measured by testosterone hydroxylation at positions 2-alpha and 16-alpha
T6 sequence (P08683 whole entry): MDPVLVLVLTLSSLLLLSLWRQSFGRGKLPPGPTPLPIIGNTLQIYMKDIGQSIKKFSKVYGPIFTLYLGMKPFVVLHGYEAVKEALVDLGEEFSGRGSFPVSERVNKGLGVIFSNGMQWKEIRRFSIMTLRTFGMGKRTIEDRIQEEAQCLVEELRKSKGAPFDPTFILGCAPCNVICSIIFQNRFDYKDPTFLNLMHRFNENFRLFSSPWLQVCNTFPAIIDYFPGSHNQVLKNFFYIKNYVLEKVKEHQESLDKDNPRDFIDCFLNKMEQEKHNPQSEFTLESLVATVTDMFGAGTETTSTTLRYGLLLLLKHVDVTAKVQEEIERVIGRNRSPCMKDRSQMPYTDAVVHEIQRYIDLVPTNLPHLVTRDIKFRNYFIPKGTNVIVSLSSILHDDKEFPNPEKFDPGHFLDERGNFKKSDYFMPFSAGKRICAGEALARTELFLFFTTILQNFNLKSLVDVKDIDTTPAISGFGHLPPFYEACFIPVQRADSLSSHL

[12] = biological target: Cytochrome P450 3A2 (Rattus norvegicus, UniProt P05183); test: Mechanism based inhibition of rat cytochrome P450 CYP3A2 measured by testosterone hydroxylation at positions 2-beta and 6-beta
Chain of Cytochrome P450 3A2 (P05183 whole entry): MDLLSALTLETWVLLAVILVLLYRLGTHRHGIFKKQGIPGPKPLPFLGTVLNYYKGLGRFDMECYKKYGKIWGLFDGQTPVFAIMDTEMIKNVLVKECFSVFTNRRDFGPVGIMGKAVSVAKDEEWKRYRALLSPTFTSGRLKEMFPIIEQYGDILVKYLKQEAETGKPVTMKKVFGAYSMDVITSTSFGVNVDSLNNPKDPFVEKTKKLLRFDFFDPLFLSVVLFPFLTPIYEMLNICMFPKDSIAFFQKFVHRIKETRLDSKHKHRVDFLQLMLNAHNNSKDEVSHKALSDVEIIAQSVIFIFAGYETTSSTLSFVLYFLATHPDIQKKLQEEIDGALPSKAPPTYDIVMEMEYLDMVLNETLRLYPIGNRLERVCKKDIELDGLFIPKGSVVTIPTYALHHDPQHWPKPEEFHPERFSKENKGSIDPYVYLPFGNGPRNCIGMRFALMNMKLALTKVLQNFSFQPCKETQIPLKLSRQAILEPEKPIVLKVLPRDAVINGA

COC(=O)c1csc2snnc12
partition_ratio [1]: 2100 | kinact [2]: 0.000667 s⁻¹ | Ki [3]: 2000 µM

C[C@]12CC[C@H]3[C@@H](CC=C4C[C@@H](O)CC[C@@]43C)[C@@H]1CC[C@@H]2C(=O)C(Cl)Cl
mechanism based inhibition [4]: Cytochrome P450 mechanistic inhibitor: PMID 9168258

CC(C)CCS[C@@H](C)[C@H]1CC[C@H]2[C@@H]3CC=C4C[C@@H](O)CC[C@]4(C)[C@H]3CC[C@]12C
mechanism based inhibition [5]: Cytochrome P450 mechanistic inhibitor: PMID 7599132

COCCCC/C(=N\OCCN)c1ccc(C(F)(F)F)cc1 [FLUVOXAMINE]
kinact [6]: 0.00267 s⁻¹ | Ki [7]: 57.4 µM

CC1(C)C=Cc2c(ccc3c2OC[C@@H](c2ccc(O)cc2O)C3)O1 [GLABRIDIN]
kinact [8]: 0.00233 s⁻¹ | Ki [9]: 7 µM | kinact [10]: 0.00133 s⁻¹

[N]=O [NITRIC OXIDE]
mechanism based inhibition [11]: Cytochrome P450 mechanistic inhibitor: PMID 9400024 | mechanism based inhibition [12]: Cytochrome P450 mechanistic inhibitor: PMID 9400024
